Experimental data taken from US11819489B2 (priority 2017, dated 2023).
Values joined by “and” are separate entries in the source; they are usually repeats but may differ in a detail not shown here. Equal values may be shown once. “Also recorded” adds a separate entry of the source.

How the values were obtained:
[1] = Stability of As-LHP complexes in Milli-Q water by XAS; assay type: physicochemical; details: 37° C.; for stability in Milli-Q water: XANES
Procedure: The stability of As-LHP complexes was studied by XAS. Samples were prepared by dissolving HyAs(LHP), MeAs(LHP) or PhAs(LHP) (1.5 mM) in Milli-Q water which was maintained at 37° C. Immediately prior to analysis the arsenic-peptide solution (600 μL) was mixed with ethylene glycol (300 μL) to prevent crystallisation during rapid freezing. The resultant solution (1 mM final As concentration) was transferred by syringe to the sample holder which was sealed with Kapton tape. The sample was then rapidly submerged in liquid nitrogen and transferred to the liquid helium cryostat where it was analysed at 10° K.
Arsenic K-edge XAS data were collected at the Australian National Beamline Facility (ANBF, beamline 20B) KEK, Tsukuba, Japan with a beam energy of 2.5 GeV, and beam current of 300-400 mA. A Si[111] channel-cut monochromator was detuned by 50% to reject harmonics. All spectra were recorded in fluorescence mode at ˜10° K (maintained with a closed-cycle He Cryolndustries REF-1577-D22 cryostat) using a 36-element Ge-array detector (Eurisys/Canberra Industries) and a 1-mm vertical slit width. XAS spectra were obtained at the zero time point and then at a later time point, 4 h or 14 h. The spectra from the two time points were processed and analysed using EXAFS PAK.

K562 cells [2] = tested on: K562 cells
[3] = Stability of As-LHP complexes in cell medium (IMDM) by XAS; assay type: physicochemical; details: 37° C., 0 h vs 24 h; for stability in IMDM: XANES
Procedure: The stability of the two most promising As-LHP complexes was also studied in cell medium (IMDM). Samples were prepared by dissolving MeAs(LHP) or PhAs(LHP) (1.5 mM) in IMDM which was maintained at 37° C. The same protocol was followed as that for the Milli-Q water stability studies. XAS spectra were obtained at the zero time point and then at 24 h. As with the Milli-Q water samples, the spectra from the two time points were processed, fitted and quantified using EXAFSPAK.

Kasumi-1 cells [4] = tested on: Kasumi-1 cells
K562 cells [5] = assay: Fate of PhAs(LHP) in K562 cells (micrographs, microprobe SR-XRF, XANES); assay type: cell-based, human; details: K562, 10 μM
Procedure: (§1) The cell lines, K562 and HL-60, were obtained and maintained as previously described. Glutaraldehyde (25% solution), Spurr's low viscosity embedding resin, 3-mm gold Finder grids, and toluidine blue were sourced from Proscitech (Kirwan, Australia). Thin-sectioned cells were prepared for microprobe SRXRF analysis using procedures documented previously. Briefly the cells were treated in cell culture flasks (75 cm^2) with either IMDM (for the control cells, 4 h or 24 h) or PhAs(LHP) (10 μM in IMDM, 4 h or 24 h). The cells were washed with PBS (2 times) using centriguation and the final cell pellet was fixed in gluteraldehyde (1 mL, 2% v/v in PBS) for 2 h at room temperature; and dehydrated in ethanol (30%×2, 50%×2, 70%×2, 80%×2, 90%×2, 95%×2, 100%×4). Infiltration was achieved by rocking the cells in 50% ethanol/50% Spurr's resin overnight and then replacing with 100% Spurr's resin (×2 over 2 days) to ensure the removal of all traces of water. On the final day, the cells were embedded in 100% Spurr's resin, centrifuged (8000 g, 1 h) and cured at 60° C. overnight in a Beem capsule. Thin sections (1 μm) of the cell pellet were cut using an ultramicrotome (Leica EM UC7). The thin-sections were stained with toluidine blue before mounting on silicon nitride membranes.
The gold Finder grids were attached to kinematic mounts designed to fit both the light microscope (Leica DMXRE Epi-fluorescence/visual microscope) and the X-ray microprobe (2-ID-D). […]
Microprobe SR-XRF was performed at beamline 2-ID-D at the Advanced Photon Source, Argonne National Laboratory (Lemont, Ill., USA). […] Fluorescent X-rays were detected using a dwell time of 2.5 s/pt and an energy dispersive Vortex EM (Hitachi High-Technologies Science America, Northridge, Calif.) silicon drift detector. […] Conversion of elemental fluorescence intensities to absolute densities in microgram per square centimetre (μg/cm^2) was performed by comparing X-ray fluorescence intensities with those from thin film standards, NBS-1832 and NBS-1833 (NIST, Gaithersburg, Md., USA).

HL-60 cells [6] = assay: Fate of PhAs(LHP) in HL-60 cells (micrographs, microprobe SR-XRF, XANES); assay type: cell-based, human; details: HL-60, 10 μM
Procedure: as §1
The gold Finder grids were attached to kinematic mounts designed to fit both the light microscope (Leica DMXRE Epi-fluorescence/visual microscope) and the X-ray microprobe (2-ID-D). Optical micrographs and XY coordinates were obtained in order to locate suitable cells for analysis.
Microprobe SR-XRF was performed at beamline 2-ID-D at the Advanced Photon Source, Argonne National Laboratory (Lemont, Ill., USA). The 11.9-keV X-ray beam was focused to a spot size of 0.3×0.3 μm^2 using two zone plates. The samples were housed in a helium atmosphere and the distributions of the elements from P (2.1 keV) to As (11.9 keV) were mapped by raster scanning the sample in 0.3 μm steps, with the aid of a XYZ motorised stage. Fluorescent X-rays were detected using a dwell time of 2.5 s/pt and an energy dispersive Vortex EM (Hitachi High-Technologies Science America, Northridge, Calif.) silicon drift detector. Elemental distribution maps were processed using MAPS Version 1.7.3.02 software package (S. Vogt, Advanced Photon Source). Conversion of elemental fluorescence intensities to absolute densities in microgram per square centimetre (μg/cm^2) was performed by comparing X-ray fluorescence intensities with those from thin film standards, NBS-1832 and NBS-1833 (NIST, Gaithersburg, Md., USA).

[7] = tested on: human peripheral blood mononuclear cells (hPBMC)
Kasumi-1 cells [8] = assay: Cellular As uptake, Kasumi-1 cells; assay type: cell-based, human; details: 24-h treatment, 1.5 μM As
Procedure: (§2) FIG. 24 is a graphical summary of the cellular As concentrations associated with the specified cell lines following 24-h treatment (1.5 μM As). The results are represented as the mean and standard deviation of triplicate samples.
(§3) FIG. 24 summarises the cellular As concentrations associated with the different cell types following 24-h treatment with the various As compounds (1.5 μM As). The leukemia cell lines, K562, HL-60, Kasumi-1 and KARPAS 45, are depicted in red (lighter of the filled in blocks), and the non-leukemia cell types are depicted in black (darkest shading), with the cancerous adherent cells, HepG2, in the diagonal stripes, and the normal cells, hPBMC, in solid black.

HL-60 cells [9] = tested on: HL-60 cells
HepG2 cells [10] = tested on: HepG2 cells
hPBMC = assay: Cellular As uptake, hPBMC; assay type: cell-based, human; details: 24-h treatment, 1.5 μM As
Procedure: as §2, §3

[11] = tested on: Chinese hamster (CH) solid tumour cells
A549 cells = details: 24-h treatment
HepG2 cells [12] = assay type: cell-based, human

Molecule: CC(=O)N[C@H]1CS[As](O)SC[C@@H](C(=O)O)NC(=O)[C@H](CCCNC(=N)N)NC(=O)[C@H](CCCNC(=N)N)NC(=O)[C@H](CC(C)C)NC(=O)[C@H](CCCNC(=N)N)NC(=O)[C@H](Cc2c[nH]cn2)NC(=O)[C@H](Cc2ccc(O)cc2)NC(=O)[C@H](C)NC1=O (stereo partly shown) [HyAs(LHP)]
- stability in Milli-Q water ([1]; 0 h vs 4 h): not stable in Milli-Q water for 4 h; also recorded: lack of stability
- IC50 as percentage of that of ATO (K562 cells [2]): 60%

Molecule: CC(=O)N[C@H]1CS[As](C)SC[C@@H](C(=O)O)NC(=O)[C@H](CCCNC(=N)N)NC(=O)[C@H](CCCNC(=N)N)NC(=O)[C@H](CC(C)C)NC(=O)[C@H](CCCNC(=N)N)NC(=O)[C@H](Cc2c[nH]cn2)NC(=O)[C@H](Cc2ccc(O)cc2)NC(=O)[C@H](C)NC1=O (stereo partly shown) [MeAs(LHP)]
- agreement between As K-edge XANES spectra at the two time points ([1]; 0 h vs 14 h): 93%
- stability in Milli-Q water ([1]; 0 h vs 14 h): good stability
- IC50 as percentage of that of ATO (K562 cells [2]): 37%
- IC50 as percentage of that of HyAs(LHP) (K562 cells [2]): 60%
- agreement between As K-edge XANES spectra at the two time points [3]: 82%
- stability in IMDM [3]: reasonable stability

Molecule: CC(=O)N[C@H]1CS[As](c2ccccc2)SC[C@@H](C(=O)O)NC(=O)[C@H](CCCNC(=N)N)NC(=O)[C@H](CCCNC(=N)N)NC(=O)[C@H](CC(C)C)NC(=O)[C@H](CCCNC(=N)N)NC(=O)[C@H](Cc2c[nH]cn2)NC(=O)[C@H](Cc2ccc(O)cc2)NC(=O)[C@H](C)NC1=O (stereo partly shown) [PhAs(LHP)]
- IC50 (Kasumi-1 cells [4]): 1.4 ± 0.1 µM
- relative toxicity / IC50 versus another compound, in words (comparator in the value) (Kasumi-1 cells [4]): approximately forty times more toxic than ATO
- times more toxic than PAO (Kasumi-1 cells [4]): 3.6 times
- times more toxic than PhAs(sLHP) (Kasumi-1 cells [4]): about 460 times
- cell morphology (toluidine-blue micrograph) (K562 cells [5]; 4 h): clear evidence of cell stress with fragmentation of the nucleus
- intracellular As distribution (microprobe SR-XRF) (K562 cells [5]; 4 h and 24 h): significant As throughout the cell with evidence of accumulation in the cell nucleus
- cell morphology (toluidine-blue micrograph) (K562 cells [5]; 24 h): breakdown of the cell membrane and fragmented/dispersed nuclear material
- cell morphology (toluidine-blue micrograph) (HL-60 cells [6]; 4 h): cell distress is evident
- intracellular As distribution (microprobe SR-XRF) (HL-60 cells [6]; 4 h): only small localisations of As
- cell morphology (toluidine-blue micrograph) (HL-60 cells [6]; 24 h): high degree of cell degredation with evidence of cell demise
- intracellular As distribution (microprobe SR-XRF) (HL-60 cells [6]; 24 h): the nucleus clearly contains a greater accumulation of As than the rest of the cell
- IC50 [7]: 495 ± 6 µM
- selectivity: IC50 in hPBMC, times greater than in K562 and HL-60 cells [7]: approximately 1000 times
- selectivity: IC50 in hPBMC, times greater than in KARPAS 45 cells [7]: approximately 64 times
- cellular As concentration in Kasumi-1 cells, times greater than in HL-60 cells (Kasumi-1 cells [8]): 1.4 times
- cellular As concentration in Kasumi-1 cells, times higher than in K562 cells (Kasumi-1 cells [8]): 1.2 times
- cellular As concentration in Kasumi-1 cells, times higher than in KARPAS 45 cells (Kasumi-1 cells [8]): 4.0 times
- IC50 (HL-60 cells [9]): 0.5 ± 0.1 µM
- relative toxicity / IC50 versus another compound, in words (comparator in the value) (HL-60 cells [9]): three times greater toxicity toward HL-60 cells than the PAO starting material
- IC50 (HepG2 cells [10]): 978 ± 11 µM
- selectivity: IC50 in HepG2 cells, times greater than in K562 and HL-60 cells (HepG2 cells [10]): ~2000 times
- cellular As concentration (hPBMC): no detectable cellular As concentrations
- IC50 [11]: 770 ± 12 µM
- selectivity: IC50 in CH solid tumour cells, times greater than in K562 and HL-60 cells [11]: approximately 1500 times
- selectivity: IC50 in A549 cells, times greater than in K562 and HL-60 cells (A549 cells): 470 times
- IC50 (A549 cells; A549 cells, MTT): 234 ± 5 µM
- agreement between As K-edge XANES spectra at the two time points ([1]; 0 h vs 14 h): ~100%
- stability in Milli-Q water ([1]; 0 h vs 14 h): stable in Milli-Q water for 14 h; also recorded: excellent stability
- cellular As concentration (HepG2 cells [12]): no detectable cellular As concentrations
- agreement between As K-edge XANES spectra at the two time points [3]: 97%
- stability in IMDM [3]: reasonably stable in IMDM for 24 h; also recorded: good stability

Molecule: arsenic trioxide [ATO]
- IC50 (Kasumi-1 cells [4]): 61 ± 1 µM
- IC50 [7]: 81.7 µM and 82 µM
- relative toxicity / IC50 versus another compound, in words (comparator in the value) [7]: approximately twice that obtained for arsenite
- cellular As concentration in Kasumi-1 cells, times greater than in HepG2 cells (Kasumi-1 cells [8]): 5.5 times
- IC50 (HL-60 cells [9]): 7 ± 0.1 µM
- relative toxicity / IC50 versus another compound, in words (comparator in the value) (HL-60 cells [9]): a little less than half that obtained for arsenite
- IC50 (HepG2 cells [10]): 52 ± 3 µM
- times more toxic than arsenite (HepG2 cells [10]): 1.7 times
- IC50 (KARPAS 45 cells): 15.1 µM and 15 µM
- IC50 as percentage of the value for arsenite (KARPAS 45 cells): 23%
- IC50 [11]: 23.3 ± 0.9 µM
- IC50 (K562 cells [2]): 9.7 ± 0.2 µM
- relative toxicity / IC50 versus another compound, in words (comparator in the value) (K562 cells [2]): approximately half that of arsenite
